Results from ChEMBL document CHEMBL4507268 (2021).

Columns and labels:
[1] = target: Sigma non-opioid intracellular receptor 1 (Homo sapiens, UniProt Q99720); assay: GPCRScan assay: inhibition of Sigma 1; parameters: radioligand conc. used [nm] 4.0 – 5.0, parental cells HEKT
[2] = target: T1, Mitogen-activated protein kinase 12 (Homo sapiens) (UniProt P53778); conditions: Compound concentration 1000.0 nM
T1 sequence (whole entry): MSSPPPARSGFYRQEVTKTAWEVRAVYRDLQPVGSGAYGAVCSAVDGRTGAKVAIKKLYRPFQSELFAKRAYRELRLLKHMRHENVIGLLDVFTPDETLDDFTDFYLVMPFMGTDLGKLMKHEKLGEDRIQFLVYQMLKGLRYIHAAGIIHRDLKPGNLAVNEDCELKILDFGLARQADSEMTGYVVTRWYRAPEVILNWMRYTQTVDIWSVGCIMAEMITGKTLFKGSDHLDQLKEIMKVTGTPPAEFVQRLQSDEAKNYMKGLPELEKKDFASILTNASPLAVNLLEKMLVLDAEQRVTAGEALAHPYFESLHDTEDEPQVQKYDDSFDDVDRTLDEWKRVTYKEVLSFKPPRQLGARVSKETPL

[3] = target: Protein kinase C theta type (Homo sapiens) (UniProt Q04759); conditions: Compound concentration 1000.0 nM
[4] = target: Serine/threonine-protein kinase N2 (Homo sapiens) (UniProt Q16513); conditions: Compound concentration 1000.0 nM
[5] = target: Serine/threonine-protein kinase MRCK alpha (Homo sapiens) (UniProt Q5VT25); conditions: Compound concentration 1000.0 nM
[6] = target: Cyclin-dependent kinase 17 (Homo sapiens) (UniProt Q00537); conditions: Compound concentration 1000.0 nM
[7] = target: MAP kinase-interacting serine/threonine-protein kinase 2 (Homo sapiens) (UniProt Q9HBH9); conditions: Compound concentration 1000.0 nM
[8] = target: T2, Serine/threonine-protein kinase TAO1 (Homo sapiens) (UniProt Q7L7X3); conditions: Compound concentration 1000.0 nM
T2 sequence (whole entry): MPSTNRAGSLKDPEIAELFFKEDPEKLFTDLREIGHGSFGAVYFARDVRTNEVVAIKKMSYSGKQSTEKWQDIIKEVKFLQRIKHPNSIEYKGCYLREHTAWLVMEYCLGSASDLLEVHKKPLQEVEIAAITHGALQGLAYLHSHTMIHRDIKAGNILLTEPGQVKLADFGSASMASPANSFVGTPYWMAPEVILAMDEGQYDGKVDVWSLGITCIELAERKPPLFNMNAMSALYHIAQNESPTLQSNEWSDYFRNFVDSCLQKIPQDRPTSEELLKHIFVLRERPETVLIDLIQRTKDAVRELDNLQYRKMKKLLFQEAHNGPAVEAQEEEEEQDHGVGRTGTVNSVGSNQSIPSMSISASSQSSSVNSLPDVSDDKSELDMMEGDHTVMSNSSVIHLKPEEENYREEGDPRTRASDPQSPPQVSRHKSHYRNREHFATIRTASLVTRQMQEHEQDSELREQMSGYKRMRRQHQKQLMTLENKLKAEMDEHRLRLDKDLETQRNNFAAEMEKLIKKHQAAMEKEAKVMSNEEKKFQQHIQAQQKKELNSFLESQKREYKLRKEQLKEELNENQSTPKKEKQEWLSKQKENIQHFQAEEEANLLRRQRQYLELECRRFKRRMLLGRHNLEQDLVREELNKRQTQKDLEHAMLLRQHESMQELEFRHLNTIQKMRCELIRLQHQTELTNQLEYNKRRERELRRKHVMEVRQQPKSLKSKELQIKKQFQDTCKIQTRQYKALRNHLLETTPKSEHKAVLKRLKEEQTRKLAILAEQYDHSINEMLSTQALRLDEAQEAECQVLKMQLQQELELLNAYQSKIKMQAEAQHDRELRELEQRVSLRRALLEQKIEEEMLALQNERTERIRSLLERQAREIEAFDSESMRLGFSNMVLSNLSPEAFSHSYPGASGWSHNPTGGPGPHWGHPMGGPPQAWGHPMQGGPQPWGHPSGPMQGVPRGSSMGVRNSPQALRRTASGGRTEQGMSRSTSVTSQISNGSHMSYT

[9] = target: LIM domain kinase 2 (Homo sapiens) (UniProt P53671); conditions: Compound concentration 1000.0 nM
[10] = target: T3, Dual specificity mitogen-activated protein kinase kinase 7 (Homo sapiens) (UniProt O14733); conditions: Compound concentration 1000.0 nM
T3 sequence (whole entry): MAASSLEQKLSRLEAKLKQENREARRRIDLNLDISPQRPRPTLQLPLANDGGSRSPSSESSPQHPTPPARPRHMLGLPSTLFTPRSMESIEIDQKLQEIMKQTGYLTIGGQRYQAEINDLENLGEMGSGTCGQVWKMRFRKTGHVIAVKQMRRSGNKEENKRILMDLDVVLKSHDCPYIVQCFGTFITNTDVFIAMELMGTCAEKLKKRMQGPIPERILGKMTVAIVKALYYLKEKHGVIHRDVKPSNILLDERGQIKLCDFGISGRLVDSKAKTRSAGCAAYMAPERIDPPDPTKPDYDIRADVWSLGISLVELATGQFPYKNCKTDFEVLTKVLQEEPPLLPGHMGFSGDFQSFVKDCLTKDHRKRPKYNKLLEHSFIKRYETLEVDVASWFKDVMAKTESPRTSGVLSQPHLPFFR

[11] = target: Histamine H3 receptor (Homo sapiens) (UniProt Q9Y5N1); conditions: Compound concentration 10.0 uM
[12] = target: Phosphatidylinositol 4,5-bisphosphate 3-kinase catalytic subunit beta isoform (Homo sapiens) (UniProt P42338); conditions: Compound concentration 1000.0 nM
[13] = target: Mitogen-activated protein kinase 15 (Homo sapiens) (UniProt Q8TD08); conditions: Compound concentration 1000.0 nM
[14] = target: 5'-AMP-activated protein kinase catalytic subunit alpha-1 (Homo sapiens) (UniProt Q13131); conditions: Compound concentration 1000.0 nM
[15] = target: Fibroblast growth factor receptor 3 (Homo sapiens) (UniProt P22607); conditions: Compound concentration 1000.0 nM
[16] = target: Serine/threonine-protein kinase mTOR (Homo sapiens) (UniProt P42345); conditions: Compound concentration 1000.0 nM
[17] = test system: Mast/stem cell growth factor receptor Kit (Homo sapiens), P10721 [V559D,V654A]; conditions: Compound concentration 1000.0 nM
[18] = target: Dual specificity mitogen-activated protein kinase kinase 2 (Homo sapiens) (UniProt P36507); conditions: Compound concentration 1000.0 nM
[19] = target: Mitogen-activated protein kinase 10 (Homo sapiens) (UniProt P53779); conditions: Compound concentration 1000.0 nM
[20] = test system: Tyrosine-protein kinase ABL1 (Homo sapiens), P00519 [T315I]; conditions: Compound concentration 1000.0 nM
[21] = target: Macrophage-stimulating protein receptor (Homo sapiens) (UniProt Q04912); conditions: Compound concentration 1000.0 nM
Chain of Macrophage-stimulating protein receptor (Homo sapiens) (Q04912 25-304 limits assumed): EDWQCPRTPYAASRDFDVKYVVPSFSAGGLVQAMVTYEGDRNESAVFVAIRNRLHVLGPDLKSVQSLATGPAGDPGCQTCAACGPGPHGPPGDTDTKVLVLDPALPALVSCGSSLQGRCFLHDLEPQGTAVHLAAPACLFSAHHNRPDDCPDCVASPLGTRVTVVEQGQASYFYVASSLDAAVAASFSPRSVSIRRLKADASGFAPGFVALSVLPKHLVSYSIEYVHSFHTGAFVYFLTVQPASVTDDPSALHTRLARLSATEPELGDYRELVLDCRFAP
Chain of Macrophage-stimulating protein receptor (Homo sapiens) (Q04912 310-1400 limits assumed): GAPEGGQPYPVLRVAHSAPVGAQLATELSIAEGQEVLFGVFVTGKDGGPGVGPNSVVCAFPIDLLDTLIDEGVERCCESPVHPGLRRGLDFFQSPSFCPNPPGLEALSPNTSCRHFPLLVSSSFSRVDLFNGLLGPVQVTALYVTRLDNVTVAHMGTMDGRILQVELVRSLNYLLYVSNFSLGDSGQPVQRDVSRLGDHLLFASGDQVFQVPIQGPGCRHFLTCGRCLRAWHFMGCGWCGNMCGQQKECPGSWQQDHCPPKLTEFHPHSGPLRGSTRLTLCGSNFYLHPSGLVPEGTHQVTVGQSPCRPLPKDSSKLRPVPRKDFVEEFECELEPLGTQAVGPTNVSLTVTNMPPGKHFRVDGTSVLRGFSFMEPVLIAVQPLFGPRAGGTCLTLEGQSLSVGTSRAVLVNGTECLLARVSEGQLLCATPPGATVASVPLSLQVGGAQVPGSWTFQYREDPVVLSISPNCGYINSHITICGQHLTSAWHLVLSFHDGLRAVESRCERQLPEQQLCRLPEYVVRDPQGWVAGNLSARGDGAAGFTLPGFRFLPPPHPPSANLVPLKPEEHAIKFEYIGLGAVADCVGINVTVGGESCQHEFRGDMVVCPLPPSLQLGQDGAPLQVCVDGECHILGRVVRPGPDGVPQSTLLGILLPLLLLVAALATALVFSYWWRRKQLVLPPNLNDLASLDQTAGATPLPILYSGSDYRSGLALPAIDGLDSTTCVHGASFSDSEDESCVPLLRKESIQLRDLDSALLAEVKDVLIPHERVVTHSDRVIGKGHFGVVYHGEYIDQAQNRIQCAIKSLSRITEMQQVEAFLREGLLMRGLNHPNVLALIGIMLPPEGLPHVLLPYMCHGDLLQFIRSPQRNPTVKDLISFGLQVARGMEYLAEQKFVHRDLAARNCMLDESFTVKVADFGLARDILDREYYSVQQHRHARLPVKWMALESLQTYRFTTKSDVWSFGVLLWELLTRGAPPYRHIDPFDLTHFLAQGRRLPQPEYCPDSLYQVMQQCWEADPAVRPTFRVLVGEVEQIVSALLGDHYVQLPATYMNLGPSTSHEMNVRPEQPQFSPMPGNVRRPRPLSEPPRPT

Chain of Serine/threonine-protein kinase N2 (Homo sapiens) (Q16513 whole entry, looked up): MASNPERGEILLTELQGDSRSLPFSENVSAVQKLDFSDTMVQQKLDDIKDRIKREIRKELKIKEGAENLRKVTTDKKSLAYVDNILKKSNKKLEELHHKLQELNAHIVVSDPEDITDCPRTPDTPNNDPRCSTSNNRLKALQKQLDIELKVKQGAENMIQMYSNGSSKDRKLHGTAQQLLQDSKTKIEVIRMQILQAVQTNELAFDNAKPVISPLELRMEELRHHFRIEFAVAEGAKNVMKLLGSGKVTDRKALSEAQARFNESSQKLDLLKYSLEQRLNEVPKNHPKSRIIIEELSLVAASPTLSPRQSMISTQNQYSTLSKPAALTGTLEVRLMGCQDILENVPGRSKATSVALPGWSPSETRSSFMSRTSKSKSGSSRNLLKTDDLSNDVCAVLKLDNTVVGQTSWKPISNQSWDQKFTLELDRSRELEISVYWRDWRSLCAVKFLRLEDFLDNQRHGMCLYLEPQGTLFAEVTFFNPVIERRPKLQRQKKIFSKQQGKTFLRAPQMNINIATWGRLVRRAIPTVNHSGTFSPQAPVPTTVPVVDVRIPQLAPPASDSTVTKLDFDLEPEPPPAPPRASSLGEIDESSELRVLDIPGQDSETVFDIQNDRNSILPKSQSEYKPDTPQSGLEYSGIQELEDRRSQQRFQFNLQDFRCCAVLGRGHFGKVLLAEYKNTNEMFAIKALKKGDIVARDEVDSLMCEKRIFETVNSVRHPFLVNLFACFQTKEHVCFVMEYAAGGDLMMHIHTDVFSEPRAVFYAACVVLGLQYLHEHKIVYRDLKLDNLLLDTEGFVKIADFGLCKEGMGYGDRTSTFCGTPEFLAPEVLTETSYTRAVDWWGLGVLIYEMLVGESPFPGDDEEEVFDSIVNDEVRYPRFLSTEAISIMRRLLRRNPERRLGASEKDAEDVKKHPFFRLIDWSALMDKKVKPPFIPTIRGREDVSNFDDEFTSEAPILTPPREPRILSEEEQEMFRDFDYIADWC
Chain of Mitogen-activated protein kinase 10 (Homo sapiens) (P53779 whole entry): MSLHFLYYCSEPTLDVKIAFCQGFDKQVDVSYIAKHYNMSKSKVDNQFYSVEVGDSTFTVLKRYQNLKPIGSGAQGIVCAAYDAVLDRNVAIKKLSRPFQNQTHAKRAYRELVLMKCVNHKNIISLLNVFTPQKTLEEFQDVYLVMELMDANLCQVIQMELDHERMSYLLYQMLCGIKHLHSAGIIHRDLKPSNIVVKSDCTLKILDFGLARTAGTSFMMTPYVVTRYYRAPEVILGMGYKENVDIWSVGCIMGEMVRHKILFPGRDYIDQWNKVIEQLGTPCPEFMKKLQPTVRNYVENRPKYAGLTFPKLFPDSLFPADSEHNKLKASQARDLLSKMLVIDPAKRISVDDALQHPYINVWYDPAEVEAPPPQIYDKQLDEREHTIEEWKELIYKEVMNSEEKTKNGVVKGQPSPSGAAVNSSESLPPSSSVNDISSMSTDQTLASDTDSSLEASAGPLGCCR
Chain of Sigma non-opioid intracellular receptor 1 (Q99720 whole entry): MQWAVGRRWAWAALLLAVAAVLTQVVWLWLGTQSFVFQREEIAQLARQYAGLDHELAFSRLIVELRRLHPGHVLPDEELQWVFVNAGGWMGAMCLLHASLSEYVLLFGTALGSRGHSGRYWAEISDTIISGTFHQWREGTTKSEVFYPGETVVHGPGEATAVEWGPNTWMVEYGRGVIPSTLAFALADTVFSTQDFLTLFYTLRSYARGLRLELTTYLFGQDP
Chain of MAP kinase-interacting serine/threonine-protein kinase 2 (Homo sapiens) (Q9HBH9 whole entry, looked up): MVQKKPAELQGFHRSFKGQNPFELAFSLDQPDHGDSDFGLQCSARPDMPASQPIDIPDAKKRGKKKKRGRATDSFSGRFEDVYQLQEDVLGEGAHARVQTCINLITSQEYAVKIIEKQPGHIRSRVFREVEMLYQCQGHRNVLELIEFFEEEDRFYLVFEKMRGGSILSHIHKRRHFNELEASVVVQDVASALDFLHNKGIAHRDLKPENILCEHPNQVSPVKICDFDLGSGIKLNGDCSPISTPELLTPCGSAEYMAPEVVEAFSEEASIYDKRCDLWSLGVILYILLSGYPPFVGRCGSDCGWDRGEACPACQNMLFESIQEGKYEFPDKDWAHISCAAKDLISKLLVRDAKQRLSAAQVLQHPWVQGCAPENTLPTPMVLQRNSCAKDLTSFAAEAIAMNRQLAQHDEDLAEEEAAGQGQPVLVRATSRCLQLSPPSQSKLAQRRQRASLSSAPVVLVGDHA
Chain of Cyclin-dependent kinase 17 (Homo sapiens) (Q00537 whole entry, looked up): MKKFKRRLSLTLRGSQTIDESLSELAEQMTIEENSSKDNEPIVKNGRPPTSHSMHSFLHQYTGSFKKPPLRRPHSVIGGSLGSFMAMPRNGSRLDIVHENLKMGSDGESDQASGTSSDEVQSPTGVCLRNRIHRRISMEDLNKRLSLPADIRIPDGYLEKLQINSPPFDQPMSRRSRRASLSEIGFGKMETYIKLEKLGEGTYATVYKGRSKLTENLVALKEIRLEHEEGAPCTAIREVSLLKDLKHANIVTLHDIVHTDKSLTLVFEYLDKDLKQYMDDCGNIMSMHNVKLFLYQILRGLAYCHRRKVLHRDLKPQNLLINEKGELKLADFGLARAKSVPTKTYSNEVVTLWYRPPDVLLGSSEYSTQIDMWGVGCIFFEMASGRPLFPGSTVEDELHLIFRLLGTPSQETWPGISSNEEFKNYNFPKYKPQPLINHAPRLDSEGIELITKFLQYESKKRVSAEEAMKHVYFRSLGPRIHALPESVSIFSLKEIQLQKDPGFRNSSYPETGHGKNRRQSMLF
Chain of Mast/stem cell growth factor receptor Kit (Homo sapiens), P10721 [V559D,V654A] (P10721 whole entry V559D/V654A): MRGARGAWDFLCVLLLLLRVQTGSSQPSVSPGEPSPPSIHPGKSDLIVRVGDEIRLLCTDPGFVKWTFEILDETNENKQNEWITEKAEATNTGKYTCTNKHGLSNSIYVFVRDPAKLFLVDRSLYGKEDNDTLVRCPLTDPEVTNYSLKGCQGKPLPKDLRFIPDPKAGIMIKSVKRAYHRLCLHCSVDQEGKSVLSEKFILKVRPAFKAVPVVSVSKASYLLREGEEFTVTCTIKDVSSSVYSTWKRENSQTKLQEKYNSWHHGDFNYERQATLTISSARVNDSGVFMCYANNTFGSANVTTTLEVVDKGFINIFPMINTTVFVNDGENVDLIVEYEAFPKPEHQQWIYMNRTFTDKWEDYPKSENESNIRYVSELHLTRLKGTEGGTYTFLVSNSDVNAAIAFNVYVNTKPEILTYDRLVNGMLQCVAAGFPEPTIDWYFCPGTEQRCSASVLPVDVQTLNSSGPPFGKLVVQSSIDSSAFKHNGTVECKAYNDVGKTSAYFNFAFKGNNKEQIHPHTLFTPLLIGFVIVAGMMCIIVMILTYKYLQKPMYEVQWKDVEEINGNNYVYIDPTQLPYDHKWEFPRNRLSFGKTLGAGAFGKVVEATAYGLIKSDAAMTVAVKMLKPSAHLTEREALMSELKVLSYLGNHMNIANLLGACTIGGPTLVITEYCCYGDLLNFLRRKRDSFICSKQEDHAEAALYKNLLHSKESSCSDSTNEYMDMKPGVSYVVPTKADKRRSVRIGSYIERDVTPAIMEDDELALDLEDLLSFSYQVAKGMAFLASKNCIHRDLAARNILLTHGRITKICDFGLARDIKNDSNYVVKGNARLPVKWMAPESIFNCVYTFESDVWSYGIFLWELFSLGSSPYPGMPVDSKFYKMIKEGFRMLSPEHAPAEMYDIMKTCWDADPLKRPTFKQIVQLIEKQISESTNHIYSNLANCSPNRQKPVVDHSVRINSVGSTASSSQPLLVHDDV

| SMILES | Ki [1] | residual activity [2] | residual activity [3] | residual activity [4] | residual activity [5] | residual activity [6] | residual activity [7] | residual activity [8] | residual activity [9] | residual activity [10] | inhibition [11] | residual activity [12] | residual activity [13] | residual activity [14] | residual activity [15] | residual activity [16] | residual activity [17] | residual activity [18] | residual activity [19] | residual activity [20] | also measured |
| --- | --- | --- | --- | --- | --- | --- | --- | --- | --- | --- | --- | --- | --- | --- | --- | --- | --- | --- | --- | --- | --- |
| Cc1nc(C2CCN(C(=O)c3ccc(OC(F)(F)F)cc3N)CC2)c2ncc(N3CCN(C)CC3)cc2n1 [BAY-693] | 2370 nM | 100% | 93% | 100% | 99% | 88% | 100% | 100% | 95% | 86% | 38.4% | 94% | 100% | 98% | 100% | 78% | 100% | 100% | 100% | 89% | residual activity [21]: 82% |
| CN1CCN(c2cnc3c(C4CCN(C(=O)c5ccc(OC(F)(F)F)cc5N)CC4)ncnc3c2)CC1 [BAY-885] | 2500 nM | 83% | 91% | 100% | 100% | 93% | 100% | 100% | 100% | 100% | 36.9% | 100% | 100% | 87% | 100% | 78% | 84% | 100% | 100% | 100% | residual activity [21]: 90% |
